Experimental data taken from US20110021579A1, “PERITONEUM PROTECTING AGENT” (TOKAI UNIVERSITY EDUCATIONAL SYSTEM, priority 2005, published 2011).

Experiments:
[1] = Biochemical data and body weight of subtotally nephrectomized uremic rats undergoing peritoneal dialysis; format: in vivo; settings: 6-week PD with pyridoxamine 5 mg/l (Group 4), 21 weeks, mean ± SD
Text: (§1) Six-week-old male Sprague-Dawley rats weighing 200±3 g (CLER Japan, Inc., Tokyo) were randomly assigned to: sham-operated control rats (Group 1: n=6); uremic rats without peritoneal dialysis (Group 2: n=12); and uremic rats undergoing peritoneal dialysis (n=24). The uremic rats undergoing peritoneal dialysis were further divided into two groups: a group dialyzed with 4.25% Dianeal (registered trademark) (3.86% glucose, 2.5 mEq/CAPD fluid, Baxter Healthcare Corp., Round Lake; IL, USA) (Group 3: n=12); and a group peritoneally dialyzed with 4.25% Dianeal (registered trademark) containing pyridoxamine (Pridorine, Biostratum Inc., NC, USA) at 5 mg/l (Group 4: n=12).
(§2) Uremic models were generated by 5/6 nephrectomy according to previous reports [Lameire N, et al. Kidney Int 54: 2194-2206, 1998; and Kleinknecht C, et al., Kidney Int 47: S51-S54, 1995]. […]
(§3) After 6 weeks of PD, 4.25% Dianeal (registered trademark) was injected from the access port and a peritoneal equilibration test (60 minutes) was performed. […] Mesenterium was excised and assessed by light microscopy or immunohistochemistry.
(§4) The concentrations of glucose, creatinine, urea, total cholesterol, and triglyceride in plasma and peritoneal dialysate were measured with an autoanalyzer (Hitachi 736-60, Hitachi Co. Ltd., Tokyo).

[2] = tested on: peritoneal membrane of uremic rats; experiment: Functional analysis of peritoneal membrane by peritoneal equilibration test (PET); format: in vivo, Sprague-Dawley rats
Text: as §1
Uremic models were generated by 5/6 nephrectomy according to previous reports [Lameire N, et al. Kidney Int 54: 2194-2206, 1998; and Kleinknecht C, et al., Kidney Int 47: S51-S54, 1995]. The animals were provided free access to standard experimental rat chow (CE2: CLER Japan, Inc., Tokyo) containing 1.06% calcium, 0.9% phosphate, and 21% proteins, and tap water until the evening prior to slaughter. On the 13th week, Rat-o-Ports with a 13.5 cm catheter (Access Technologies, Norfolk Medical, Skokie, Ill., USA) were implanted into all the rats under anesthetization of isoflurane. The Rat-o-ports were implanted subcutaneously in the neck, after one week of which the peritoneal dialysis with 30 ml of dialysate was initiated twice a day. The PD was continued for 6 weeks [Zweers MM, et al., Nephrol Dial Transplant 16: 651-654, 2001]. Before the initiation of the peritoneal dialysis, four, five, and two rats had died respectively in Group 2, Group 3, and Group 4. […]
as §3, §4
The dialysate/plasma (D/P) ratio of Cr (A) and urea (B), and the absorption of glucose from the dialysate (D/D0) (C) were assessed, during a 60-minute exchange with 20 ml of 3.85% glucose dialysate, in control rats (Group 1), uremic rats without PD (Group 2), uremic rats undergoing peritoneal dialysis in the absence of pyridoxamine (Group 3), and uremic rats undergoing peritoneal dialysis in the presence of 5 mg/L pyridoxamine (Group 4). a: p<0.01 vs. Group 1. b: p<0.01 vs. Group 2. c: p<0.01 vs. Group 3. d: p<0.01 vs. Group 4. e: p<0.05 vs. Group 3. f: p<0.05 vs. Group 4.

[3] = tested on: vessels in the peritoneal tissue; experiment: Number of vessels in mesenterium (von Willebrand factor staining, image analysis); format: in vivo, Sprague-Dawley rats; settings: uremic rats with PD plus pyridoxamine; uremia alone 1.87-fold, PD 5.83-fold
Text: as §1, §2
(§5) After 6 weeks of PD, 4.25% Dianeal (registered trademark) was injected from the access port and a peritoneal equilibration test (60 minutes) was performed. […] Mesenterium was excised and assessed by light microscopy or immunohistochemistry. […]
The number of vessels was assessed in the sections stained for von Willebrand factor by image analysis using a WinROOF software (Mitani. Corporation, Tokyo). […]

[4] = tested on: pentosidine (AGE and carbonyl stress marker); experiment: Pentosidine content in peritoneal membrane by HPLC; format: in vivo, Sprague-Dawley rats
Text: as §1, §2, §3
The pentosidine content in the rat peritoneal membrane was assessed as follows, using HPLC in accordance with an already-reported method [Miyata T, et al., J. Am. […] The effluent was monitored using a fluorescence detector (RF-10A: Shimadzu, Tokyo) at an excitation-emission wavelength of 335/385 nm. […]

VEGF = VEGF mRNA expression in mesenterium by semiquantitative RT-PCR; format: in vivo, Sprague-Dawley rats; settings: peritoneal tissue, uremic rats with PD plus pyridoxamine, FIG. 7B
Text: as §1, with “n=12). […]” for “n=12).”
(§6) Expression of VEGF or FGF2 (mesenterium) mRNA was analyzed by using semiquantitative reverse transcriptase-polymerase chain reaction (RT-PCR). […]
(§7) β-actin was used as an internal standard of RNA to enable comparison of RNA levels among different samples. […] The PCR products that were resolved by electrophoresis on a 2% agarose gel and stained using ethidium bromide were quantified by measuring the signal intensity with a quantitation program (NIH image software). The mRNA was determined in triplicate and the results were averaged for each experiment. […] The results were averaged and expressed as means±SD. […]

FGF-2 = FGF-2 mRNA expression in mesenterium by semiquantitative RT-PCR; format: in vivo, Sprague-Dawley rats; settings: peritoneal tissue, uremic rats with PD plus pyridoxamine, FIG. 7C
Text: as §1, with “n=12). […]” for “n=12).”
as §6, §7

[5] = tested on: VEGF, FGF-2, vWF, AGEs, and TGF-β1; experiment: Immunohistochemical analysis of mesenterium tissue sections; format: in vivo, Sprague-Dawley rats; settings: rats treated with pyridoxamine; prominent in uremic rats with PD, FIG. 8
Text: as §1
Uremic models were generated by 5/6 nephrectomy according to previous reports [Lameire N, et al. Kidney Int 54: 2194-2206, 1998; and Kleinknecht C, et al., Kidney Int 47: S51-S54, 1995]. The animals were provided free access to standard experimental rat chow (CE2: CLER Japan, Inc., Tokyo) containing 1.06% calcium, 0.9% phosphate, and 21% proteins, and tap water until the evening prior to slaughter. […]
as §5

With `Cc1ncc(CO)c(CN)c1O` [pyridoxamine] the Body weight [1] was 419 ± 29 g, the “Absorption rate of glucose from the dialysate (D/D0)” value ([2]; 6-week treatment, pyridoxamine 5 mg/L in dialysate, 60-minute PET, vs Group 3) was “significantly lowered” and the “Transport rate of small solutes (creatinine, urea) from the plasma (D/P ratio)” value ([2]; 6-week treatment, pyridoxamine 5 mg/L in dialysate, 60-minute PET, vs uremic PD rats without pyridoxamine (Group 3)) was “significantly lowered”. For the same compound, the “Slope of the regression line between increased permeability for small solutes (creatinine and glucose) and degree of renal failure” value ([2]; Group 4, FIGS. 3A and B) was “dramatically lowered”, the “Influence of uremia on membrane permeability” value ([2]; pyridoxamine treatment, uremic rats with PD) was “completely dissipated” and the “Increase in vessel number (ratio to number of vessels of healthy control animals)” value [3] was 2.68 fold. For the same compound, the “Slope of the regression line between pentosidine content and renal failure” value ([4]; Group 4, FIG. 5B, in words) was “lowered the slope of the regression line”, the Tissue pentosidine content ([4]; Group 4 vs Group 3, FIG. 5A) was “significantly lowered” and the “VEGF mRNA expression (ratio over β-actin)” value (VEGF) was “equivalent levels to those of uremic rats without PD”. The “FGF-2 mRNA expression (ratio over β-actin)” value (FGF-2) was “equivalent levels to those of uremic rats without PD” and the “VEGF, FGF-2, vWF, AGEs, and TGF-β1 stainings in capillaries of the mesenterium” value [5] was “only faint stainings”.
